Reference: PubChem BioAssay (NCI)
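All cell lines were grown in 96-well plates and treated with compound for 48 hours. TGI: concentration producing complete growth inhibition.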

Legend:
Assay in all cases: growth of human tumour cells (NCI), 48 h
T-47D breast = test system: T-47D breast
HCT-116 colon = test system: HCT-116 colon
MCF7 breast = test system: MCF7 breast
OVCAR-3 ovarian = test system: OVCAR-3 ovarian
HS 578T breast = test system: HS 578T breast
RXF 393 renal = test system: RXF 393 renal
EKVX NSCLC = test system: EKVX NSCLC
NCI-H23 lung = test system: NCI-H23 lung
SK-MEL-5 melanoma = test system: SK-MEL-5 melanoma
IGROV1 ovarian = test system: IGROV1 ovarian
U251 CNS = test system: U251 CNS
SF-268 CNS = test system: SF-268 CNS
SK-OV-3 ovarian = test system: SK-OV-3 ovarian
A549 NSCLC = test system: A549 NSCLC
RPMI-8226 leukemia = test system: RPMI-8226 leukemia
UO-31 renal = test system: UO-31 renal
786-0 renal = test system: 786-0 renal
MDA-MB-231 breast = test system: MDA-MB-231 breast
TK-10 renal = test system: TK-10 renal
UACC-257 melanoma = test system: UACC-257 melanoma
M14 melanoma = test system: M14 melanoma
HOP-62 NSCLC = test system: HOP-62 NSCLC
OVCAR-4 ovarian = test system: OVCAR-4 ovarian
SF-539 CNS = test system: SF-539 CNS
SK-MEL-28 melanoma = test system: SK-MEL-28 melanoma
BT-549 breast = test system: BT-549 breast
NCI/ADR-RES ovarian = test system: NCI/ADR-RES ovarian
DU-145 prostate = test system: DU-145 prostate
SN12C renal = test system: SN12C renal
NCI-H460 lung = test system: NCI-H460 lung
LOX IMVI melanoma = test system: LOX IMVI melanoma
SNB-75 CNS = test system: SNB-75 CNS
SNB-19 CNS = test system: SNB-19 CNS
MALME-3M melanoma = test system: MALME-3M melanoma
NCI-H522 lung = test system: NCI-H522 lung
OVCAR-8 ovarian = test system: OVCAR-8 ovarian
PC-3 prostate = test system: PC-3 prostate
HL-60(TB) leukemia = test system: HL-60(TB) leukemia
HT29 colon = test system: HT29 colon
NCI-H226 lung = test system: NCI-H226 lung
COLO 205 colon = test system: COLO 205 colon
SK-MEL-2 melanoma = test system: SK-MEL-2 melanoma
ACHN renal = test system: ACHN renal
MDA-MB-435 = test system: MDA-MB-435
OVCAR-5 ovarian = test system: OVCAR-5 ovarian
HOP-92 NSCLC = test system: HOP-92 NSCLC
HCC-2998 colon = test system: HCC-2998 colon
HCT-15 colon = test system: HCT-15 colon
UACC-62 melanoma = test system: UACC-62 melanoma
SW-620 colon = test system: SW-620 colon
A498 renal = test system: A498 renal

With `Cc1ccc2c(c1)SC1=Nc3sc4cc(C)ccc4[n+]3CN12` the TGI (T-47D breast) was 8.75 µM, the TGI (HCT-116 colon) was 35 µM and the TGI (MCF7 breast) was greater than 100 µM. The TGI (OVCAR-3 ovarian) was 6.97 µM, the TGI (HS 578T breast) was 35.5 µM and the TGI (RXF 393 renal) was greater than 100 µM. It also gave a TGI (EKVX NSCLC) of 45.4 µM, a TGI (NCI-H23 lung) of 13.6 µM and a TGI (SK-MEL-5 melanoma) of 3.28 µM. For the same compound, the TGI (IGROV1 ovarian) was 34 µM, the TGI (U251 CNS) was 19 µM and the TGI (SF-268 CNS) was greater than 100 µM. For the same compound, the TGI (SK-OV-3 ovarian) was greater than 100 µM, the TGI (A549 NSCLC) was 67.1 µM and the TGI (RPMI-8226 leukemia) was 6.17 µM. The TGI (UO-31 renal) was greater than 100 µM, the TGI (786-0 renal) was greater than 100 µM and the TGI (MDA-MB-231 breast) was 92.8 µM. For the same compound, the TGI (TK-10 renal) was 48 µM, the TGI (UACC-257 melanoma) was 12.8 µM and the TGI (M14 melanoma) was 19.1 µM. The TGI (HOP-62 NSCLC) was 54.6 µM, the TGI (OVCAR-4 ovarian) was 29.6 µM and the TGI (SF-539 CNS) was 25.4 µM. It also gave a TGI (SK-MEL-28 melanoma) of 29.2 µM, a TGI (BT-549 breast) of 18.3 µM and a TGI (NCI/ADR-RES ovarian) greater than 100 µM. It also gave a TGI (DU-145 prostate) greater than 100 µM, a TGI (SN12C renal) of 56.2 µM and a TGI (NCI-H460 lung) greater than 100 µM. For the same compound, the TGI (LOX IMVI melanoma) was greater than 100 µM, the TGI (SNB-75 CNS) was 64.5 µM and the TGI (SNB-19 CNS) was 16.9 µM. The TGI (MALME-3M melanoma) was 4.63 µM, the TGI (NCI-H522 lung) was 11.2 µM and the TGI (OVCAR-8 ovarian) was 18.8 µM. It also gave a TGI (PC-3 prostate) greater than 100 µM, a TGI (HL-60(TB) leukemia) of 9.77 µM and a TGI (HT29 colon) of 28.4 µM. It also gave a TGI (NCI-H226 lung) of 75.2 µM, a TGI (COLO 205 colon) of 13.1 µM and a TGI (SK-MEL-2 melanoma) of 17.8 µM. The TGI (ACHN renal) was greater than 100 µM, the TGI (MDA-MB-435) was 20.2 µM and the TGI (OVCAR-5 ovarian) was greater than 100 µM. It also gave a TGI (HOP-92 NSCLC) of 68 µM, a TGI (HCC-2998 colon) of 6.62 µM and a TGI (HCT-15 colon) greater than 100 µM. The TGI (UACC-62 melanoma) was 16.6 µM, the TGI (SW-620 colon) was 53.1 µM and the TGI (A498 renal) was 87.1 µM.
